In data set [1] the test system is Pseudomonas syringae pv. tomato. Kind of data set: Pseudomonas syringae pv. tomato in vitro cell test. The format is cell-based. Conditions: 20 ppm of active ingredient, 24 h of incubation, read-out: efficacy (inhibition of bacteria growth; no direct activity). As for the experimental part:
(§1) • Solvent: DMSO • Culture medium: LB broth medium (Luria Broth Miller) Sigma • Inoculum: bacteria suspension Compounds were solubilized in DMSO and the solution used to prepare the required range of concentrations. The final concentration of DMSO used in the assay was ≤1%. Inoculum was prepared from a pre-culture of bacteria grown in liquid medium and diluted to the desired optical density (OD). Compounds were evaluated for their ability to inhibit bacteria growth in liquid culture assay. The compounds were added in the desired concentrations to culture medium containing the bacteria suspension. After 24 h of incubation, the efficacy of compounds was determined by spectrometric measurement of bacteria growth. Inhibition was determined by comparing the absorbance values in wells containing the compounds with the absorbance in control wells without active ingredients.

The subject of data set [2] is salicylate responsive promoter sequence of the PR1 (pathogenesis-related protein I) gene (AT2G14610). Kind of data set: Induction of defense gene expression in Arabidopsis thaliana (PR1 promoter-GFP reporter plants). Conditions: 72 h, 3rd day after spraying, mock treated leaves set as 1.00, read-out: relative fluorescence value. The format is in vivo. Here is the method: Arabidopsis thaliana reporter plants containing the coding sequence of a green fluorescent protein (GFP) linked to the salicylate responsive promoter sequence of the PR1 (pathogenesis-related protein I) gene (AT2G14610) were grown for five days and then sprayed with compounds. On the 3rd day after spraying, plant fluorescence was assessed with a MacroFluo instrument from Leica Microsystems (Wetzlar, Germany). Fluorescences were quantified with the Meta-Morph Microscopy Automation & Image Analysis Software (Molecular Devices, Sunnyvale, Calif., United States). Background fluorescence in mock treated leaves was set as 1.00.

In data set [3] the test system is Xanthomonas campestris pv. campestris. Kind of data set: Xanthomonas campestris pv. campestris in vitro cell test. The format is cell-based. Conditions: 24 h of incubation, read-out: efficacy (inhibition of bacteria growth; no direct activity); for inhibition at 5 ppm: 5 ppm of active ingredient; for inhibition at 20 ppm: 20 ppm of active ingredient. As for the experimental part:
as §1

Data set [4] deals with Colletotrichum lindemuthianum. Kind of data set: Colletotrichum lindemuthianum in vitro cell test. The format is cell-based. The conditions noted are these: 144 h, 6 days incubation, read-out: efficacy (inhibition of fungal growth; no direct activity); for inhibition at 5 ppm: 5 ppm of active ingredient; for inhibition at 20 ppm: 20 ppm of active ingredient. As for the experimental part: (§2) • Solvent: DMSO • Culture medium: 14.6 g anhydrous D-glucose (VWR), 7.1 g Mycological Peptone (Oxoid), 1.4 g granulated Yeast Extract (Merck), QSP 1 liter • Inoculum: spores suspension Fungicides were solubilized in DMSO and the solution used to prepare the required range of concentrations. The final concentration of DMSO used in the assay was ≤[…]1%. A spore suspension of C. lindemuthianum was prepared and diluted to the desired spore density. Fungicides were evaluated for their ability to inhibit spores germination and mycelium growth in liquid culture assay. The compounds were added in the desired concentration to the culture medium with spores. After 6 days incubation, fungi-toxicity of compounds was determined by spectrometric measurement of mycelium growth. Inhibition of fungal growth was determined by comparing the absorbance values in wells containing the fungicides with the absorbance in control wells without fungicides.

Data set [5] concerns Alternaria alternata. Kind of data set: Alternaria alternata in vitro cell test. The format is cell-based. The conditions noted are these: 120 h, 5 days incubation, read-out: efficacy (inhibition of fungal growth; no direct activity); for inhibition at 5 ppm: 5 ppm of active ingredient; for inhibition at 20 ppm: 20 ppm of active ingredient. As for the experimental part:
as §2, with “of A. alternata” for “of C. lindemuthianum”, “inhibit spore” for “inhibit spores”, “After 5” for “After 6”

For data set [6], the system named is Xanthomonas campestris pv. campestris. Kind of data set: In vivo preventive test on Xanthomonas campestris pv. campestris (black rot on cabbage). The conditions noted are these: Xanthomonas campestris, sprayed 72 hours before inoculation, evaluated 8 or 10 days after inoculation, read-out: efficacy; for pest or weed control at 31 ppm: 31 ppm of active ingredient; for pest or weed control at 125 ppm: 125 ppm of active ingredient. Here is the method: (§3) The tested active ingredients were prepared by homogenization in a mixture of acetone/Dimethyl sulfoxide/Tween®, and then diluted with water to obtain the desired active material concentration.
(§4) The young plants of cabbage were treated by spraying the active ingredient prepared as described above. Control plants were treated only with an aqueous solution of acetone/Dimethyl sulfoxide/Tween®.
After 72 hours, the plants were contaminated by spraying the leaves with an aqueous bacteria suspension of Xanthomonas campestris pv. campestris. The contaminated cabbage plants were incubated for 8 or 10 days at 27° C. at 95% relative humidity.
The test was evaluated 8 or 10 days after the inoculation. 0% means an efficacy which corresponds to that of the control plants while an efficacy of 100% means that no disease was observed.

Data set [7] has as its system Uromyces appendiculatus. Kind of data set: In vivo preventive test on Uromyces appendiculatus (bean rust). Conditions: 240 h, sprayed 72 hours before inoculation, evaluated 10 days after inoculation, read-out: efficacy; for pest or weed control at 31 ppm: 31 ppm of active ingredient; for pest or weed control at 125 ppm: 125 ppm of active ingredient; for pest or weed control at 500 ppm: 500 ppm of active ingredient. As for the experimental part:
as §3
The young plants of bean were treated by spraying the active ingredient prepared as described above. Control plants were treated only with an aqueous solution of acetone/Dimethyl sulfoxide/Tween®.
After 72 hours, the plants were contaminated by spraying the leaves with an aqueous suspension of Uromyces appendiculatus spores. The contaminated bean plants were incubated for 24 hours at 20° C. and at 100% relative humidity and then for 9 days at 20° C. and at 70-80% relative humidity.
The test was evaluated 10 days after the inoculation. 0% means an efficacy which corresponds to that of the control plants while an efficacy of 100% means that no disease was observed.

Data set [8] is described as follows: LogP by HPLC on reversed phase columns (EEC directive 79/831 Annex V.A8). The format is physicochemical. The conditions noted are these: reversed phase HPLC columns. An outline of the steps: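 Reversed-phase HPLC, calibrated with straight-chain alkan-2-ones (C3–C16) of known LogP; values by linear interpolation of retention times between successive alkanones. Multiple values from one method are joined by "+"; lambda-max taken from 200–400 nm UV spectra at chromatographic peaks.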

Data set [9] deals with Peronospora parasitica. Kind of data set: In vivo preventive test on Peronospora parasitica (Crucifer downy mildew) on cabbage. The conditions noted are these: Hyaloperonospora parasitica, 120 h, sprayed 72 hours before inoculation, evaluated 5 days after inoculation, read-out: efficacy; for pest or weed control at 31 ppm: 31 ppm of active ingredient; for pest or weed control at 125 ppm: 125 ppm of active ingredient; for pest or weed control at 500 ppm: 500 ppm of active ingredient. As for the experimental part: as §3, §4
After 72 hours, the plants were contaminated by spraying the leaves with an aqueous suspension of Peronospora parasitica spores. The contaminated cabbage plants were incubated for 5 days at 20° C. and at 100% relative humidity.
The test was evaluated 5 days after the inoculation. 0% means an efficacy which corresponds to that of the control plants while an efficacy of 100% means that no disease was observed.

Where two headings read alike, the source gives them in different places.

On to `CCSC(=O)C1(NC(=O)c2sc(Cl)c(Cl)c2C)CC1` [I.049, S-ethyl 1-{[(4,5-dichloro-3-methyl-2-thienyl)carbonyl]amino}cyclopropanecarbothioate], for which the inhibition at 20 ppm in [1] and in [3] was at most 30% each time. In addition, the fold induction at 75 ppm in data set [2] was above 2. The fold induction at 300 ppm in [2] was above 2. The inhibition at 5 ppm in data set [3], in data set [4] and in data set [5] was at most 30% in each case. For the same molecule, the pest or weed control at 31 ppm in data set [6] fell in the range of 80 to 89%; in [7], 70 to 79%; in data set [9] it was 90 to 100%. In addition, the pest or weed control at 500 ppm in [6] (500 ppm of active ingredient) is 80 to 89%; in data set [7], 80 to 89%; in data set [9], 90 to 100%. Besides, the pest or weed control at 125 ppm in [7] and in data set [9] was 90 to 100% in each case. In addition, the chromatographic logP in data set [8] (preparation examples, method not indicated, read-out: Log P) amounted to 3.67.
On to `Cc1c(C(=O)NC(CC(N)=O)C(=O)O)sc(Br)c1Br` (stereo not shown) [I.076], for which the inhibition at 20 ppm in data set [1], in [3], in [4] and in data set [5] was at most 30% in each case. Besides, in data set [2], the fold induction at 300 ppm was above 2. Also, the inhibition at 5 ppm in data set [3], in data set [4] and in data set [5] was at most 30% in each case. Besides, the pest or weed control at 31 ppm in data set [6] fell in the range of 70 to 79%. For the same molecule, the pest or weed control at 125 ppm in data set [7] lay within 80 to 89%; in data set [9], 90 to 100%. The pest or weed control at 500 ppm in data set [7] and in [9] was 90 to 100% in each case. Moreover, in data set [8] (method [a]), the chromatographic logP worked out at 1.73.
Consider `COC(=O)[C@H](CCCNC(=N)N)NC(=O)c1sc(Br)c(Br)c1C` [I.035], for which the inhibition at 20 ppm in [1], in data set [3] and in data set [4] was at most 30% throughout. In addition, in data set [2], the fold induction at 300 ppm is above 2. In addition, the inhibition at 5 ppm in data set [3], in [4] and in [5] was at most 30% throughout. Also, the results for the pest or weed control at 125 ppm in [6], in data set [7] and in data set [9] were 80 to 89%, 80 to 89% and 70 to 79%, respectively. The pest or weed control at 500 ppm in [7] and in data set [9] was 80 to 89% each time. In data set [8] (method [a]), this molecule showed a chromatographic logP of 1.74.
Turning to `COC(=O)C1(NC(=O)c2sc(Cl)c(Cl)c2C)CCC1` [I.171], the inhibition at 20 ppm in data set [1], in [3] and in data set [5] was at most 30% in each case. Moreover, in [2], the fold induction at 75 ppm is above 2. The fold induction at 300 ppm in data set [2] is above 2. Further, the inhibition at 5 ppm in data set [3], in [4] and in data set [5] was at most 30% each time. Also, the pest or weed control at 125 ppm was 70 to 79% in [6], 90 to 100% in data set [7] and 90 to 100% in [9]. Moreover, the pest or weed control at 31 ppm in data set [7] is 80 to 89%; in [9], 90 to 100%. The molecule further came in with a chromatographic logP in data set [8] (method [a]) of 3.5.
Consider `CCOC(=O)C(NC(=O)c1sc(Cl)c(Cl)c1C)C(F)(F)F` (stereo not shown) [I.164], for which the inhibition at 20 ppm in data set [1], in data set [3], in data set [4] and in data set [5] was at most 30% in each case. Besides, the fold induction at 75 ppm in data set [2] was above 2. Besides, in data set [2], the fold induction at 300 ppm was above 2. Besides, the inhibition at 5 ppm in data set [3], in data set [4] and in data set [5] was at most 30% throughout. The pest or weed control at 31 ppm in data set [6] was in the range of 80 to 89%; in [7], 90 to 100%; in [9], 90 to 100%. The pest or weed control at 125 ppm in data set [7] and in [9] was 90 to 100% each time. This molecule also yielded a chromatographic logP in data set [8] (method [a]) of 4.07. Besides, the pest or weed control at 500 ppm in data set [9] is at least 90%.
For the molecule `Cc1c(C(=O)NC(Cc2c[nH]c3ccccc23)C(=O)O)sc(Cl)c1Cl` (stereo not shown) [I.070], the inhibition at 20 ppm in data set [1], in data set [3], in data set [4] and in data set [5] was at most 30% in each case. In data set [2], the fold induction at 300 ppm was above 2. The inhibition at 5 ppm in [3], in [4] and in data set [5] was at most 30% each time. Also, the pest or weed control at 31 ppm in data set [6] and in [9] was 70 to 79% each time. Moreover, the pest or weed control at 125 ppm in data set [6] fell in the range of 80 to 89%; in data set [9] it was 90 to 100%. Further, the pest or weed control at 500 ppm in data set [7] and in data set [9] was 90 to 100% in each case. Further, the chromatographic logP in data set [8] (method [a]) turned out to be 3.12.

The record behind these values is patent US12509437B2, “Substituted thiophene carboxamides and derivatives thereof as microbicides” (Bayer Aktiengesellschaft, priority 2019, dated 2025).
